Experimental data published in patent US5053070A, “Pyrimidine derivatives, preparation processes thereof, herbicide containing the same, and herbicidal compositions containing the same along with other active ingredient” (Mitsui Toatsu Chemicals, Incorporated, priority 1988, dated 1991).
Blank lines part the entries; values can stand above or below the molecule they belong to.

Tests used:
[1] = system: ALS (acetolactate syntase); assay: ALS enzyme assay (Test 1); format: biochemical, barnyardgrass; conditions: 1,000 ppm (0.5 mg/0.5 ml)
Outline: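 Partially purified ALS from dark-grown pea and barnyardgrass seedlings incubated 1 h at 30° C with pyruvate, TPP, MgCl2 and FAD. Compounds tested at 1,000 ppm (0.5 mg/0.5 ml). Acetoin formed detected colorimetrically at 525 nm via creatine/α-naphthol, relative to blank and acid-stopped controls.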

barnyardgrass [2] = assay: Upland soil application test (Test 2); format: in vivo; conditions: 30 g ai/a, soil spray before emergence, 30 days later
Outline: (§1)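 Steps: fill pots with fertilized upland field soil containing uniformly mixed weed seed; sow crops and cover with 2-3 cm soil; after one day, spray the diluted wettable powder evenly over the soil at 10 l per are; assess at 30 days against untreated controls by dry weight.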

common lambsquarters = assay: Upland soil application test (Test 2); format: in vivo; conditions: 30 g ai/a, soil spray before emergence, 30 days later
Outline: as §1

foxtail meadow = assay: Upland soil application test (Test 2); format: in vivo; conditions: 30 g ai/a, soil spray before emergence, 30 days later
Outline: as §1

green foxtail = assay: Upland soil application test (Test 2); format: in vivo; conditions: 30 g ai/a, soil spray before emergence, 30 days later
Outline: as §1

johnsongrass = assay: Upland soil application test (Test 2); format: in vivo; conditions: 30 g ai/a, soil spray before emergence, 30 days later
Outline: as §1

large crabgrass = assay: Upland soil application test (Test 2); format: in vivo; conditions: 30 g ai/a, soil spray before emergence, 30 days later
Outline: as §1

redroot pigweed = assay: Upland soil application test (Test 2); format: in vivo; conditions: 30 g ai/a, soil spray before emergence, 30 days later
Outline: as §1

cotton = assay: Upland soil application test (Test 2), crop injury; format: in vivo; conditions: 30 g ai/a, soil spray before emergence, 30 days later
Outline: (§2)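 Soil-surface application of water-diluted wettable powder at 10 l per are, made one day after seeding and ahead of weed emergence. Plants stayed in the greenhouse for 30 days; injury was rated by air-dried weight versus untreated pots.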

peanut = assay: Upland soil application test (Test 2), crop injury; format: in vivo; conditions: 30 g ai/a, soil spray before emergence, 30 days later
Outline: as §2

soybean = assay: Upland soil application test (Test 2), crop injury; format: in vivo; conditions: 30 g ai/a, soil spray before emergence, 30 days later
Outline: as §2

Sagittaria pygmaea [3] = assay: Treatment of soil under submerged condition, pre-emergence (Test 4); format: in vivo; conditions: 30 g ai/a granule, 30 days later
Outline: (§3)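 Under submerged conditions, pots carrying weed propagules and transplanted young rice (2–3 leaves) were given a granulated test composition one day after planting, ahead of weed emergence. Plants grew in a greenhouse, with weed emergence and crop injury read 30 days after treatment.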

barnyardgrass [4] = assay: as above; format: in vivo; conditions: 30 g ai/a granule, 30 days later
Outline: as §3

bulrush [5] = assay: as above; format: in vivo; conditions: 30 g ai/a granule, 30 days later
Outline: as §3

Sagittaria pygmaea [6] = assay: Treatment of soil under submerged condition, post-emergence (Test 5); format: in vivo; conditions: 30 g ai/a granule, 30 days later
Outline: (§4)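 Soil was filled into pots and kept submerged, and weed seeds or tubers were sown. Pairs of pre-reared rice seedlings at 2–3 leaves were then transplanted. A granule of the composition was applied at the barnyardgrass two-leaf stage, and plants were rated after 30 days.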

barnyardgrass [7] = assay: as above; format: in vivo; conditions: 30 g ai/a granule, post-emergence (barnyardgrass two-leaf stage), 30 days later
Outline: as §4

bulrush [8] = assay: as above; format: in vivo; conditions: 30 g ai/a granule, 30 days later
Outline: as §4

- Inhibitory activity (%) Barnyardgrass [1]: 15%
Structure (SMILES): COc1cc(OC)nc(Oc2ccccc2C=NOCc2ccccc2Cl)n1 [compound 16]
- Herbicidal effects Barnyardgrass (barnyardgrass [2]): 3 (11-40 (Medium damages))
- Herbicidal effects Common lambsquarters (common lambsquarters): 3 (11-40 (Medium damages))
- Herbicidal effects Foxtail meadow (foxtail meadow): 3 (11-40 (Medium damages))
- Herbicidal effects Green foxtail (green foxtail): 3 (11-40 (Medium damages))
- Herbicidal effects Johnsongrass (johnsongrass): 3 (11-40 (Medium damages))
- Herbicidal effects Large crabgrass (large crabgrass): 4 (6-10 (Severe damages))
- Herbicidal effects Redroot pigweed (redroot pigweed): 3 (11-40 (Medium damages))
- Injury Cotton (cotton): 0 (91-100 (No damages))
- Injury Peanut (peanut): 0 (91-100 (No damages))
- Injury Soybean (soybean): 0 (91-100 (No damages))
- Herbicidal effects Sagittaria Pygmaea (Sagittaria pygmaea [3]): 4 (6-10 (Severe damages))
- Herbicidal effects Barnyardgrass (barnyardgrass [4]): 4 (6-10 (Severe damages))
- Herbicidal effects Bulrush (bulrush [5]): 3 (11-40 (Medium damages))
- Herbicidal effects Sagittaria Pygmaea (Sagittaria pygmaea [6]): 3 (11-40 (Medium damages))
- Herbicidal effects Barnyardgrass (barnyardgrass [7]): 4 (6-10 (Severe damages))
- Herbicidal effects Bulrush (bulrush [8]): 4 (6-10 (Severe damages))

- Inhibitory activity (%) Barnyardgrass [1]: 55%
Structure (SMILES): CC#CCON=Cc1ccccc1Oc1nc(OC)cc(OC)n1 [compound 10]
- Herbicidal effects Barnyardgrass (barnyardgrass [2]): 3 (11-40 (Medium damages))
- Herbicidal effects Common lambsquarters (common lambsquarters): 3 (11-40 (Medium damages))
- Herbicidal effects Foxtail meadow (foxtail meadow): 4 (6-10 (Severe damages))
- Herbicidal effects Green foxtail (green foxtail): 4 (6-10 (Severe damages))
- Herbicidal effects Johnsongrass (johnsongrass): 4 (6-10 (Severe damages))
- Herbicidal effects Large crabgrass (large crabgrass): 3 (11-40 (Medium damages))
- Herbicidal effects Redroot pigweed (redroot pigweed): 3 (11-40 (Medium damages))
- Injury Cotton (cotton): 0 (91-100 (No damages))
- Injury Peanut (peanut): 0 (91-100 (No damages))
- Injury Soybean (soybean): 0 (91-100 (No damages))
- Herbicidal effects Sagittaria Pygmaea (Sagittaria pygmaea [3]): 4 (6-10 (Severe damages))
- Herbicidal effects Barnyardgrass (barnyardgrass [4]): 5 (0-5 (Death))
- Herbicidal effects Bulrush (bulrush [5]): 4 (6-10 (Severe damages))
- Herbicidal effects Sagittaria Pygmaea (Sagittaria pygmaea [6]): 5 (0-5 (Death))
- Herbicidal effects Barnyardgrass (barnyardgrass [7]): 5 (0-5 (Death))
- Herbicidal effects Bulrush (bulrush [8]): 5 (0-5 (Death))

- Inhibitory activity (%) Barnyardgrass [1]: 89%
Structure (SMILES): COc1cc(OC)nc(Oc2ccccc2C=NOCC=Cc2cccc(Cl)c2Cl)n1 [compound 41]
- Herbicidal effects Barnyardgrass (barnyardgrass [2]): 5 (0-5 (Death))
- Herbicidal effects Common lambsquarters (common lambsquarters): 4 (6-10 (Severe damages))
- Herbicidal effects Foxtail meadow (foxtail meadow): 4 (6-10 (Severe damages))
- Herbicidal effects Green foxtail (green foxtail): 4 (6-10 (Severe damages))
- Herbicidal effects Johnsongrass (johnsongrass): 4 (6-10 (Severe damages))
- Herbicidal effects Large crabgrass (large crabgrass): 5 (0-5 (Death))
- Herbicidal effects Redroot pigweed (redroot pigweed): 5 (0-5 (Death))
- Injury Cotton (cotton): 0 (91-100 (No damages))
- Injury Peanut (peanut): 0 (91-100 (No damages))
- Injury Soybean (soybean): 0 (91-100 (No damages))
- Herbicidal effects Sagittaria Pygmaea (Sagittaria pygmaea [3]): 5 (0-5 (Death))
- Herbicidal effects Barnyardgrass (barnyardgrass [4]): 5 (0-5 (Death))
- Herbicidal effects Bulrush (bulrush [5]): 4 (6-10 (Severe damages))
- Herbicidal effects Sagittaria Pygmaea (Sagittaria pygmaea [6]): 4 (6-10 (Severe damages))
- Herbicidal effects Barnyardgrass (barnyardgrass [7]): 5 (0-5 (Death))
- Herbicidal effects Bulrush (bulrush [8]): 4 (6-10 (Severe damages))

- Inhibitory activity (%) Barnyardgrass [1]: 16%
Structure (SMILES): COc1cc(OC)nc(Oc2ccccc2C=NOCc2ccc(C)cc2)n1 [compound 19]
- Herbicidal effects Barnyardgrass (barnyardgrass [2]): 4 (6-10 (Severe damages))
- Herbicidal effects Common lambsquarters (common lambsquarters): 4 (6-10 (Severe damages))
- Herbicidal effects Foxtail meadow (foxtail meadow): 4 (6-10 (Severe damages))
- Herbicidal effects Green foxtail (green foxtail): 4 (6-10 (Severe damages))
- Herbicidal effects Johnsongrass (johnsongrass): 3 (11-40 (Medium damages))
- Herbicidal effects Large crabgrass (large crabgrass): 3 (11-40 (Medium damages))
- Herbicidal effects Redroot pigweed (redroot pigweed): 3 (11-40 (Medium damages))
- Injury Cotton (cotton): 0 (91-100 (No damages))
- Injury Peanut (peanut): 0 (91-100 (No damages))
- Injury Soybean (soybean): 0 (91-100 (No damages))
- Herbicidal effects Sagittaria Pygmaea (Sagittaria pygmaea [3]): 4 (6-10 (Severe damages))
- Herbicidal effects Barnyardgrass (barnyardgrass [4]): 4 (6-10 (Severe damages))
- Herbicidal effects Bulrush (bulrush [5]): 4 (6-10 (Severe damages))
- Herbicidal effects Sagittaria Pygmaea (Sagittaria pygmaea [6]): 3 (11-40 (Medium damages))
- Herbicidal effects Barnyardgrass (barnyardgrass [7]): 4 (6-10 (Severe damages))
- Herbicidal effects Bulrush (bulrush [8]): 4 (6-10 (Severe damages))

- Inhibitory activity (%) Barnyardgrass [1]: 90%
Structure (SMILES): COc1cc(OC)nc(Oc2ccccc2C=NOCC=Cc2ccc(Cl)c(Cl)c2)n1 [compound 31]
- Herbicidal effects Barnyardgrass (barnyardgrass [2]): 4 (6-10 (Severe damages))
- Herbicidal effects Common lambsquarters (common lambsquarters): 3 (11-40 (Medium damages))
- Herbicidal effects Foxtail meadow (foxtail meadow): 4 (6-10 (Severe damages))
- Herbicidal effects Green foxtail (green foxtail): 4 (6-10 (Severe damages))
- Herbicidal effects Johnsongrass (johnsongrass): 5 (0-5 (Death))
- Herbicidal effects Large crabgrass (large crabgrass): 4 (6-10 (Severe damages))
- Herbicidal effects Redroot pigweed (redroot pigweed): 3 (11-40 (Medium damages))
- Injury Cotton (cotton): 0 (91-100 (No damages))
- Injury Peanut (peanut): 0 (91-100 (No damages))
- Injury Soybean (soybean): 0 (91-100 (No damages))
- Herbicidal effects Sagittaria Pygmaea (Sagittaria pygmaea [3]): 4 (6-10 (Severe damages))
- Herbicidal effects Barnyardgrass (barnyardgrass [4]): 3 (11-40 (Medium damages))
- Herbicidal effects Bulrush (bulrush [5]): 3 (11-40 (Medium damages))
- Herbicidal effects Sagittaria Pygmaea (Sagittaria pygmaea [6]): 4 (6-10 (Severe damages))
- Herbicidal effects Barnyardgrass (barnyardgrass [7]): 5 (0-5 (Death))
- Herbicidal effects Bulrush (bulrush [8]): 4 (6-10 (Severe damages))

- Inhibitory activity (%) Barnyardgrass [1]: 64%
Structure (SMILES): C=C(C)CON=Cc1ccccc1Oc1nc(OC)cc(OC)n1 [compound 5]
- Herbicidal effects Barnyardgrass (barnyardgrass [2]): 5 (0-5 (Death))
- Herbicidal effects Common lambsquarters (common lambsquarters): 4 (6-10 (Severe damages))
- Herbicidal effects Foxtail meadow (foxtail meadow): 5 (0-5 (Death))
- Herbicidal effects Green foxtail (green foxtail): 5 (0-5 (Death))
- Herbicidal effects Johnsongrass (johnsongrass): 5 (0-5 (Death))
- Herbicidal effects Large crabgrass (large crabgrass): 5 (0-5 (Death))
- Herbicidal effects Redroot pigweed (redroot pigweed): 4 (6-10 (Severe damages))
- Injury Cotton (cotton): 0 (91-100 (No damages))
- Injury Peanut (peanut): 0 (91-100 (No damages))
- Injury Soybean (soybean): 0 (91-100 (No damages))
- Herbicidal effects Sagittaria Pygmaea (Sagittaria pygmaea [3]): 5 (0-5 (Death))
- Herbicidal effects Barnyardgrass (barnyardgrass [4]): 4 (6-10 (Severe damages))
- Herbicidal effects Bulrush (bulrush [5]): 4 (6-10 (Severe damages))
- Herbicidal effects Sagittaria Pygmaea (Sagittaria pygmaea [6]): 5 (0-5 (Death))
- Herbicidal effects Barnyardgrass (barnyardgrass [7]): 5 (0-5 (Death))
- Herbicidal effects Bulrush (bulrush [8]): 5 (0-5 (Death))

- Inhibitory activity (%) Barnyardgrass [1]: 98%
Structure (SMILES): COc1cc(OC)nc(Oc2ccccc2C=O)n1 [B, reference compound]
- Herbicidal effects Barnyardgrass (barnyardgrass [2]): 4 (6-10 (Severe damages))
- Herbicidal effects Common lambsquarters (common lambsquarters): 3 (11-40 (Medium damages))
- Herbicidal effects Foxtail meadow (foxtail meadow): 4 (6-10 (Severe damages))
- Herbicidal effects Green foxtail (green foxtail): 4 (6-10 (Severe damages))
- Herbicidal effects Johnsongrass (johnsongrass): 4 (6-10 (Severe damages))
- Herbicidal effects Large crabgrass (large crabgrass): 4 (6-10 (Severe damages))
- Herbicidal effects Redroot pigweed (redroot pigweed): 3 (11-40 (Medium damages))
- Injury Cotton (cotton): 5 (0-5 (Death))
- Injury Peanut (peanut): 5 (0-5 (Death))
- Injury Soybean (soybean): 5 (0-5 (Death))
- Herbicidal effects Sagittaria Pygmaea (Sagittaria pygmaea [3]): 5 (0-5 (Death))
- Herbicidal effects Barnyardgrass (barnyardgrass [4]): 3 (11-40 (Medium damages))
- Herbicidal effects Bulrush (bulrush [5]): 3 (11-40 (Medium damages))
- Herbicidal effects Sagittaria Pygmaea (Sagittaria pygmaea [6]): 4 (6-10 (Severe damages))
- Herbicidal effects Barnyardgrass (barnyardgrass [7]): 5 (0-5 (Death))
- Herbicidal effects Bulrush (bulrush [8]): 5 (0-5 (Death))
